The test system of test [1] is ppMlc (T18/S19) levels in A7R5 cells. The test is described as follows: A7R5 in-cell ELISA (pMLC). Particulars: Rattus norvegicus, A7R5, A7R5 cells; for inhibition at 1 µM: 1 μM compound; for inhibition at 1 µM / inhibition at 10 µM: read-out: pMLC % inh A7R5 @ [conc]; for inhibition at 10 µM: 10 μM compound. It is filed as cell-based, Rat. An outline of the steps:
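Cellular IC50 came from a nonlinear regression fit of ppMlc (T18/S19) signal, read by colorimetric in-cell ELISA on fixed cells. Rat A7R5 aortic smooth muscle cells had been exposed for 90 min to compounds in 9-point 2-fold serial dilution, 24 h after seeding.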
Background: In an ELISA, binding on a coated surface is turned into a signal by an enzyme label.

For test [2], the target named is Recombinant ROCK1 (amino acids 1-535) (Homo sapiens (Human), UniProt Q13464). The test is described as follows: Z′-Lyte kinase assay, ROCK1. Format: biochemical. An outline of the steps:
(§1)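 IC50s derive from nonlinear curve fits over a 9-point, 2-fold dilution series, with single-point inhibition at 1 μM expressed relative to DMSO. Activity of truncated human ROCK1 (residues 1-535) and ROCK2 (residues 1-552) measured with the Z′-Lyte kinase format.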

Test [3] deals with Recombinant ROCK2 (amino acids 1-552) (Homo sapiens (Human), UniProt O75116). The test is described as follows: Z′-Lyte kinase assay, ROCK2. Format: biochemical. To be noted: for inhibition at 1 µM: 1 μM compound. An outline of the steps:
as §1

Test [4] relates to human ACTA2 gene promoter luciferase reporter in NIH3T3 cells. The test is described as follows: NIH3T3 Acta2-promoter driven-luciferase assay. To be noted: read-out: NIH3T3 Acta2-luc, IC50. Format: cell-based. As for the experimental part:
NIH3T3 Cells Acta2-Promoter Driven-Luciferase Assay.
A NIH3T3 cell line stably expressing a luciferase reporter driven by the human ACTA2 gene promoter (−1000-1 bp) was established (NIH3T3-Acta2-luciferase). The cells were plated to confluence and treated with the test compounds plus TGFβ1 for 24 hr. Cells were then lysed and luciferase activity was measured using the LightSwitch luciferase kit from Active Motif.
In vitro activities for the compounds were measured with Z′-lyte kinase kit (ThermoFisher Scientific). The percent inhibition rate was calculated by normalizing the kinase activity value obtained with 1 μM compound treatment against DMSO control value and then applied to the formula, [1-(compound/DMSO)]×100%. IC50s were calculated using the nonlinear regression curve fit function of the GraphPad Prism software with kinase activities data measured with 9 points 2-fold serial dilution of compounds treatment. In cell pMLC IC50s were calculated with data obtained from A7R5 cell experiments. A7R5 cells were treated with 9 points 2-fold serial dilution of compounds and ppMlc (T18/S19) levels were determined to calculate cellular IC50 values of the compounds using the nonlinear regression curve fit function of the GraphPad Prism software. NIH3T3 cells stably expressing ACTA2-promoter-driven-luciferase were applied to measure ROCK compounds functional IC50s in cells. Cells were plated in 96 well plates to confluence and treated with 9 points serial dilution of compounds in combination with TGFβ1 for 24 hr. Luciferase activities were measured and compound's IC50s were calculated using the nonlinear regression curve fit function of the GraphPad Prism software.
ROCK inhibitors can be effectively rank ordered by ACTA2-promoter-driven-luciferase reporter cell assay. NIH3T3 cells stably expressing ACTA2-promoter-driven-luciferase were plated in 96 well plates to confluence and treated with 9 points serial dilution of compounds in combination with TGFβ1 for 24 hr. Luciferase activities were measured and compound's IC50s were calculated. By this assay multiple compounds of the invention gave IC50s under 200 nM.

The mark [5] stands for this setting: read-out: ROCK2 % inh. @ [conc].
[6] abbreviates: NIH3T3, 24 h, with TGFβ1, 24 hr.
Where [7] appears, read: 9 points 2-fold serial dilution.
Where [8] appears, read: NIH3T3, 24 h, NIH3T3 cells, plus TGFβ1 for 24 hr.

18 molecules from patent publication US11613531B2, “Inhibitors of RHO associated coiled-coil containing protein kinase” (Kadmon Corporation, LLC, priority 2017, dated 2023) can be followed below.

Where two headings read alike, the source gives them in different places.

Chain of Recombinant ROCK1 (amino acids 1-535) (Q13464 1-535): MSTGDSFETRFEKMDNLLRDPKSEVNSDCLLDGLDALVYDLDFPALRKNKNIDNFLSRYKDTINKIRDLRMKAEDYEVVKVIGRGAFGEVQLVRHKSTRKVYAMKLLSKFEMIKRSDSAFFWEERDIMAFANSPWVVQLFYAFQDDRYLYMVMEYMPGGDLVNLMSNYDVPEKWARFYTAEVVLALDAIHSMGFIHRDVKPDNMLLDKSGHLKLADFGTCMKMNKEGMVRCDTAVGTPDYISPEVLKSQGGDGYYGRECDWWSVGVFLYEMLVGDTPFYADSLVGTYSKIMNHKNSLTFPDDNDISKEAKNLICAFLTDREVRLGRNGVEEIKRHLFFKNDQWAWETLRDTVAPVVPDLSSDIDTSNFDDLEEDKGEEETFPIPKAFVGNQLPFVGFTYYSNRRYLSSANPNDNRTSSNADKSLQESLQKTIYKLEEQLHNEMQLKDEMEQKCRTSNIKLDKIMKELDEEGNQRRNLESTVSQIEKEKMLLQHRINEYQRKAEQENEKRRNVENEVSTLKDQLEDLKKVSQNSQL
Chain of Recombinant ROCK2 (amino acids 1-552) (O75116 1-552): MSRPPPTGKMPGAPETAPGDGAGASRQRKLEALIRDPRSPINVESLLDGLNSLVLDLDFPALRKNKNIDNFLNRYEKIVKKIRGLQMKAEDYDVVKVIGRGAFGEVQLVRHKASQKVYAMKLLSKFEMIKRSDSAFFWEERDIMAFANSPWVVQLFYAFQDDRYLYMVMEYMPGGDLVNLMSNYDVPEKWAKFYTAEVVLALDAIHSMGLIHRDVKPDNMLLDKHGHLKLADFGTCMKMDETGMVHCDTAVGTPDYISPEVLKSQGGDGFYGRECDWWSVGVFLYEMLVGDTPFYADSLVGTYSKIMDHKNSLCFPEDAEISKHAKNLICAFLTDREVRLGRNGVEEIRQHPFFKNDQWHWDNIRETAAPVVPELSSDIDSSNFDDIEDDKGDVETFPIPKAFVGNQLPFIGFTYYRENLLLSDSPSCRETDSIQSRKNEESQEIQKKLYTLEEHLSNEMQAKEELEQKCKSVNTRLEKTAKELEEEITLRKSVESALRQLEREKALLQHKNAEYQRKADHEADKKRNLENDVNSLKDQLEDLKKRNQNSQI

What is called IC50 is the midpoint of a concentration-inhibition curve. Regarding `Cc1nc(N2C3CCC2CNC3)nc(Nc2ccc3[nH]ncc3c2)c1C` [Example 29, N-(2-(3,8-diazabicyclo[3.2.1]octan-8-yl)-5,6-dimethylpyrimidin-4-yl)-1H-indazol-5-amine], the IC50 in test [1] worked out at 147 nM; in test [2], 42 nM; in test [4] (setting [6]) it was 1090 nM. In addition, the results for the inhibition at 1 µM in test [1] and in test [3] (setting [5]) were 39.1% and 102%, respectively.

For `Cc1cc(Nc2ccc3[nH]ncc3c2)nc(N2CCCNCC2C)n1` (centres unmarked) [Example 117, N-(6-methyl-2-(2-methyl-1,4-diazepan-1-yl)pyrimidin-4-yl)-1H-indazol-5-amine], the inhibition at 1 µM in test [1] was determined as 50.6%. For the same molecule, the IC50 in test [1] (ppMlc (T18/S19)) stood at 168 nM; in test [2] (setting [7]), 15 nM; in test [3] (setting [7]), 45 nM; in test [4] (setting [8]), 1270 nM.

For the molecule `Clc1cnc(N2CC3CC2CN3)nc1Nc1ccc2[nH]ncc2c1` (centres unmarked) [Example 194, N-(2-(2,5-diazabicyclo[2.2.1]heptan-2-yl)-5-chloropyrimidin-4-yl)-1H-indazol-5-amine], the inhibition at 1 µM in test [1] worked out at 31.6%; in test [3] (setting [5]), 98.3%. The IC50 in test [1] (ppMlc (T18/S19)) amounted to 176 nM; in test [2] (setting [7]), 41 nM; in test [3] (setting [7]), 23 nM; in test [4] (setting [8]) it was 1540 nM.

As to `COc1cnc(N2C3CCC2CNC3)nc1Nc1ccc2[nH]ncc2c1` [Example 198, N-(2-(3,8-diazabicyclo[3.2.1]octan-8-yl)-5-methoxypyrimidin-4-yl)-1H-indazol-5-amine], the IC50 in test [1] worked out at 57 nM; in test [2] it was 4.1 nM; in test [3] it was 5 nM; in test [4] (setting [6]) it was 413 nM. In addition, the inhibition at 1 µM in test [1] turned out to be 38%; in test [3] (setting [5]), 104%.

Take `c1cc(Nc2ccc3[nH]ncc3c2)nc(N2C3CNCC2C3)n1` [Example 200, N-(2-(3,6-diazabicyclo[3.1.1]heptan-6-yl)pyrimidin-4-yl)-1H-indazol-5-amine]: the inhibition at 10 µM in test [1] is 49.8%. Besides, the IC50 worked out at 275 nM in test [1] (ppMlc (T18/S19)), 28 nM in test [2] (setting [7]), 1.6 nM in test [3] (setting [7]) and 1600 nM in test [4] (setting [8]).

Take `c1cc(Nc2ccc3[nH]ncc3c2)nc(N2CC3CC2CN3)n1` (centres unmarked) [Example 201, N-(2-(2,5-diazabicyclo[2.2.1]heptan-2-yl)pyrimidin-4-yl)-1H-indazol-5-amine]: the inhibition at 1 µM in test [1] was 50.1%. In addition, the IC50 in test [1] (ppMlc (T18/S19)) is 168 nM; in test [2] (setting [7]), 37 nM; in test [3] (setting [7]), 27 nM; in test [4] (setting [8]) it was 1640 nM.

For the molecule `Cc1cc(Nc2ccc3[nH]ncc3c2)nc(N2CCNC(C)C2)n1` (centres unmarked) [Example 204, N-(6-methyl-2-(3-methylpiperazin-1-yl)pyrimidin-4-yl)-1H-indazol-5-amine], the inhibition at 10 µM in test [1] turned out to be 70%. In addition, the IC50 was 231 nM in test [1] (ppMlc (T18/S19)), 20 nM in test [2] (setting [7]), 85 nM in test [3] (setting [7]) and 1780 nM in test [4] (setting [8]).

For `Cc1cc(Nc2ccc3[nH]ncc3c2)nc(N2CCNCC2C)n1` (centres unmarked) [Example 207, N-(6-methyl-2-(2-methylpiperazin-1-yl)pyrimidin-4-yl)-1H-indazol-5-amine], the inhibition at 10 µM in test [1] came out at 52.3%. The IC50 in test [1] (ppMlc (T18/S19)) stood at 351 nM; in test [2] (setting [7]) it was 41 nM; in test [3] (setting [7]) it was 104 nM; in test [4] (setting [8]) it was 1260 nM. For the same molecule, the inhibition at 1 µM in test [3] (setting [5]) was 91%.

Consider `Cc1cc(Nc2ccc3[nH]ncc3c2)nc(N2C3CCC2CNC3)n1` [Example 209, N-(2-(3,8-diazabicyclo[3.2.1]octan-8-yl)-6-methylpyrimidin-4-yl)-1H-indazol-5-amine], for which the inhibition at 1 µM in test [1] worked out at 53.2%. The IC50 in test [1] (ppMlc (T18/S19)) was 47 nM; in test [2] (setting [7]), 5 nM; in test [3] (setting [7]), 34 nM; in test [4] (setting [8]), 332 nM.

For the molecule `Cc1cc(Nc2ccc3[nH]ncc3c2)nc(N2C3CNCC2C3)n1` [Example 213, N-(2-(3,6-diazabicyclo[3.1.1]heptan-6-yl)-6-methylpyrimidin-4-yl)-1H-indazol-5-amine], the inhibition at 1 µM in test [1] is 34%; in test [3] (setting [5]), 101%. In addition, the IC50 in test [1] (ppMlc (T18/S19)) was 60 nM; in test [2] (setting [7]) it was 0.2 nM; in test [3] (setting [7]) it was 1.6 nM; in test [4] (setting [8]), 230 nM.

`Fc1cnc(N2CCNCC2)nc1Nc1ccc2[nH]ncc2c1` [Example 214, N-(5-fluoro-2-(piperazin-1-yl)pyrimidin-4-yl)-1H-indazol-5-amine]: in test [1], the inhibition at 10 µM came out at 63%. Besides, the IC50 is 323 nM in test [1] (ppMlc (T18/S19)), 38 nM in test [2] (setting [7]), 26 nM in test [3] (setting [7]) and 1250 nM in test [4] (setting [8]).

As for `Fc1cnc(N2CCCNCC2)nc1Nc1ccc2[nH]ncc2c1` [Example 215, N-(2-(1,4-diazepan-1-yl)-5-fluoropyrimidin-4-yl)-1H-indazol-5-amine], in test [1], the inhibition at 10 µM worked out at 68.5%. Also, the IC50 was 201 nM in test [1] (ppMlc (T18/S19)); 40 nM in test [2] (setting [7]); 37 nM in test [3] (setting [7]); 1220 nM in test [4] (setting [8]); 1780 nM in test [4] (NIH3T3 cells, plus TGFβ1 for 24 hr).

As for `Fc1cnc(N2CC3CCC(C2)N3)nc1Nc1ccc2[nH]ncc2c1` [Example 217, N-(2-(3,8-diazabicyclo[3.2.1]octan-3-yl)-5-fluoropyrimidin-4-yl)-1H-indazol-5-amine], the inhibition at 1 µM in test [1] came out at 51.2%. Besides, the IC50 came out at 127 nM in test [1] (ppMlc (T18/S19)), 6 nM in test [2] (setting [7]), 28 nM in test [3] (setting [7]) and 963 nM in test [4] (setting [8]).

Take `COc1nc(N2C3CCC2CNC3)nc(Nc2ccc3[nH]ncc3c2)c1F` [Example 319, N-(2-(3,8-diazabicyclo[3.2.1]octan-8-yl)-5-fluoro-6-methoxypyrimidin-4-yl)-1H-indazol-5-amine]: the inhibition at 0.5 µM in test [2] (0.5 μM compound, read-out: ROCK1 % inh. @ [conc]) is 98%; in test [3] (0.5 μM compound, read-out: ROCK2 % inh. @ [conc]), 100%. Also, the figures for the IC50 in test [3] and in test [4] (setting [6]) were 1.1 nM and 59 nM, respectively.

On to `FC(F)(F)c1cc(Nc2ccc3[nH]ncc3c2)nc(N2C3CCC2CNC3)n1` [Example 341, N-(2-(3,8-diazabicyclo[3.2.1]octan-8-yl)-6-(trifluoromethyl)pyrimidin-4-yl)-1H-indazol-5-amine], for which the IC50 in test [1] amounted to 27 nM; in test [3], 5.8 nM; in test [4] (setting [6]), 58 nM.

Take `CN(C)c1nc(N2C3CCC2CNC3)nc(Nc2ccc3[nH]ncc3c2)c1F` [Example 342]: the IC50 in test [1] worked out at 26 nM; in test [3], 0.1 nM; in test [4] (setting [6]), 1950 nM.

In the case of `Cc1nc(N2C3CCC2CNC3)nc(Nc2ccc3[nH]ncc3c2)c1C#N` [Example 343, 4-((1H-indazol-5-yl)amino)-2-(3,8-diazabicyclo[3.2.1]octan-8-yl)-6-methylpyrimidine-5-carbonitrile], the IC50 in test [1] came to 127 nM; in test [3], 5.6 nM; in test [4] (setting [6]) it was 223 nM.

In the case of `CN(C)c1nc(N2C3CCC2CNC3)nc(Nc2ccc3[nH]ncc3c2)c1Cl` [Example 344, 2-(3,8-diazabicyclo[3.2.1]octan-8-yl)-5-chloro-N^4-(1H-indazol-5-yl)-N^6,N^6-dimethylpyrimidine-4,6-diamine], the IC50 in test [1] came out at 82 nM; in test [3] it was 1.7 nM; in test [4] (setting [6]), 192 nM.
